The values that follow are results of earlier work, collected in patent US20210393580A1, “PROCYANIDINS FOR THE TREATMENT OF ENDOTHELIAL DYSFUNCTION TRIGGERED BY COVID-19” (priority 2020, published 2021).

The subject of data set [1] is iNOS (inducible nitric oxide synthase).
For data set [2], the system named is SARS proteases, spike protein and nonstructural proteins (NSP-9, 15). The settings on record: Autodock vina; hydrogen bonds with active site residues, low binding energy.
Data set [3] deals with wild-type severe acute respiratory syndrome coronavirus (wtSARS-CoV). The settings on record: compounds fractionated from CC; for IC50: read-out: IC50, anti-wtSARS-CoV activity.

Take `O=C1CCC(Cc2ccc(O)c(O)c2)O1` (stereo not drawn) [M1, δ-(3,4-dihydroxy-phenyl)-γ-valerolactone]: in data set [1], the excessive nitrite production result was “reducing” and the iNOS expression result was “reducing iNOS (inducible nitric oxide synthase) expression”. With `CCc1oc(=O)c(Cc2c(O)c(CC=C(C)C)c(O)c(C(C)=O)c2O)c(O)c1C` [arzanol], in data set [2], the “interaction with the SARS viral proteins” value is “significant interaction”. With `COc1cc(/C=C/C(=O)O)ccc1O` [ferulic acid], the “interaction with the SARS viral proteins” value in data set [2] is “significant interaction”. As to `O=c1c(-c2ccc(O)cc2)coc2cc(O)cc(O)c12` [genistein], in data set [2], the “interaction with the SARS viral proteins” value is “significant interaction”. In general, IC50 refers to the point on the concentration scale where inhibition reaches its midpoint. Regarding `Oc1cc(O)c2c(c1)O[C@@]1(c3ccc(O)c(O)c3)Oc3cc(O)c4c(c3[C@@H]2[C@H]1O)O[C@H](c1ccc(O)c(O)c1)[C@H](O)C4` [procyanidin A2], in data set [3], the “SI, anti-wtSARS-CoV activity” value is on record as 37.35 and the IC50 was 29.9 ± 3.3 µM. On to `Oc1cc(O)c2c(c1)O[C@H](c1ccc(O)c(O)c1)[C@H](O)[C@H]2c1c(O)cc(O)c2c1O[C@H](c1ccc(O)c(O)c1)[C@@H](O)C2` [procyanidin B1], for which, in data set [3], the “SI, anti-wtSARS-CoV activity” value is given as 15.69 and the IC50 is 41.3 ± 3.4 µM.

For `Oc1ccc(C=Cc2cc(O)cc(O)c2)cc1` [resveratrol], the “interaction with the SARS viral proteins” value in data set [2] was “significant interaction”. As to `CC(C)c1cc2c(c(O)c1O)[C@@]13CCCC(C)(C)[C@@H]1[C@H](OC3=O)[C@H]2O` [rosmanol], the “interaction with the SARS viral proteins” value in data set [2] is listed as “significant interaction”. For `Cc1cc(O)c(C(C)C)cc1O` [thymohydroquinone], in data set [2], the “interaction with the SARS viral proteins” value is “significant interaction”.
